According to ChEMBL document CHEMBL1139301, “Multifidone: a novel cytotoxic lathyrane-type diterpene having an unusual six-membered A ring from Jatropha multifida” (Bioorg Med Chem Lett, 2009):

Experiments:
Format in all cases: functional, cell-based
THP-1 = assay: Cytotoxicity against human THP1 cells by MTT assay
HL-60 = assay: Cytotoxicity against human HL60 cells by MTT assay
A-375 = assay: Cytotoxicity against human A375 cells by MTT assay
A549 = assay: Cytotoxicity against human A549 cells by MTT assay

SMILES	IC50 (THP-1) [µM]	IC50 (HL-60) [µM]	IC50 (A-375) [µM]	IC50 (A549) [µM]
CC1=CC(=O)[C@]23O[C@](C)(C=C2C1=O)CC[C@H]1[C@@H](C[C@H]3C)C1(C)C [MULTIFIDONE]	45.6	121	159	127
COc1cc([C@@H]2c3cc4c(cc3[C@@H](O[C@@H]3O[C@@H]5CO[C@@H](C)O[C@H]5[C@H](O)[C@H]3O)[C@H]3COC(=O)[C@H]23)OCO4)cc(OC)c1O [ETOPOSIDE]	2.16	1.83	3.92	9.51
